The results in this text go back to patent publication US9708336B2, “Metallo-beta-lactamase inhibitors” (priority 2014, dated 2017).

One assay addresses NDM-1 (Klebsiella pneumoniae, UniProt C7C422). The experiment in a line: biochemical. It counts as biochemical.
For another assay, the target named is IMP-1 (Serratia marcescens, UniProt P52699). The experiment in a line: biochemical. It counts as biochemical. As to conditions: IMP-1 enzyme, CCF2-FA fluorescence assay; read-out: IMP-1 IC50.
Another assay deals with VIM-1 (Pseudomonas aeruginosa (strain ATCC 15692 / DSM 22644 / CIP 104116 / JCM 14847 / LMG 12228 / 1C / PRS 101 / PAO1), UniProt A0A0F7KYQ8). In words: Enzyme activity: determination of IC50, fluorescence assay with CCF2-FA substrate (VIM-1). It counts as biochemical. As to conditions: CCF2-FA fluorescence assay.
The test system of assay [1] is Escherichia coli expressing NDM-1 (CLB30016). In words: Antibiotic potentiation activity: synergistic concentration (MITC95) with imipenem, OD600 growth. It counts as cell-based. As to conditions: Escherichia coli expressing NDM-1 (CLB30016), 95% growth inhibition. Summed up:
(§1)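 Test compound was combined with 4 μg/ml imipenem (or optionally 1 μg/ml), or with no antibiotic, against saline-suspended colonies diluted 1:100 in 1.1×CAMHB. Strains were E. coli NDM-1, S. marcescens IMP-1 and K. pneumoniae VIM-1. Plates were incubated 22–24 h at 35 °C before absorbance (OD600) readout.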

Assay [2] concerns Klebsiella pneumoniae expressing VIM-1 (IHMA599644). The assay is described as above. It counts as cell-based. As to conditions: Klebsiella pneumoniae expressing VIM-1 (IHMA599644), 95% growth inhibition. Summed up:
as §1

Assay [3] has as its system Serratia marcescens expressing IMP-1 (CL5741). Described as above. It counts as cell-based. As to conditions: Serratia marcescens expressing IMP-1 (CL5741), 95% growth inhibition. Put shortly: as §1
Where [4] appears, read: NDM-1 enzyme, CCF2-FA fluorescence assay, read-out: NDM-1 IC50.
Setting [5] is: VIM-1 enzyme, read-out: VIM-1 IC50.

Like-named read-outs stand apart in the source and are kept apart here.

Chain of NDM-1 (C7C422 whole entry, looked up, species assumed): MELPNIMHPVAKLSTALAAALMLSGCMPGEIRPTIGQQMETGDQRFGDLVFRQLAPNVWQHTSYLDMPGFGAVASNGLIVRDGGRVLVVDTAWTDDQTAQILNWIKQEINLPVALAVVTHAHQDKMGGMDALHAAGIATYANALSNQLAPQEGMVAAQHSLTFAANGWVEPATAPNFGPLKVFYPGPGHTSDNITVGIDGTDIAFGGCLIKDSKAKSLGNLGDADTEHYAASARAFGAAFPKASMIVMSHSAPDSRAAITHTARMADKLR
Chain of IMP-1 (P52699 whole entry, looked up): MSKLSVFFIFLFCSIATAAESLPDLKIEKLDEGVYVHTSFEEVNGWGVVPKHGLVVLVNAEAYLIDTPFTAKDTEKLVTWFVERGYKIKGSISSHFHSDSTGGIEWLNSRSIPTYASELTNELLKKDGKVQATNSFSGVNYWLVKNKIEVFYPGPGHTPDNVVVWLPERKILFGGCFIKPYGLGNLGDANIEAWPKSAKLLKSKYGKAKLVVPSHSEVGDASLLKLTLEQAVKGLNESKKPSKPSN

Take `NS(=O)(=O)c1c(C(F)(F)F)ccc(-c2ccc(CO)cc2)c1-c1nn[nH]n1` [Example 445, 4′-(hydroxymethyl)-2-(2H-tetrazol-5-yl)-4-(trifluoromethyl)-[1,1′-biphenyl]-3-sulfonamide]: the figures for the IC50 at NDM-1 (setting [4]), on IMP-1 and on VIM-1 (setting [5]) were 1.28 nM, 1.17 nM and 1.34 nM, respectively. Also, the “Escherichia coli MITC95” value in assay [1] was determined as 1.547 µM. Moreover, the “Klebsiella pneumoniae MITC95” value in assay [2] amounted to 4.688 µM. Further, in assay [3], the “Serratia marcescens MITC95” value came to 0.125 µM.

Regarding `N=C(N)N1Cc2ccc(-c3ccc(C(F)(F)F)c(S(N)(=O)=O)c3-c3nn[nH]n3)cc2C1` [Example 446, 5-(3-sulfamoyl-2-(2H-tetrazol-5-yl)-4-(trifluoromethyl)phenyl)isoindoline-2-carboximidamide], the results for the IC50 at NDM-1 (setting [4]), on IMP-1 and at VIM-1 (setting [5]) were 15.4 nM, 19.4 nM and 0.252 nM, respectively. The “Escherichia coli MITC95” value in assay [1] turned out to be 1.563 µM. Also, the “Klebsiella pneumoniae MITC95” value in assay [2] stood at 1.563 µM. For the same compound, in assay [3], the “Serratia marcescens MITC95” value came to 0.3906 µM.

On to `N=C(N)NC1Cc2ccc(-c3ccc(C(F)(F)F)c(S(N)(=O)=O)c3-c3nn[nH]n3)cc2C1` (stereo not drawn) [Example 447, 3-(2-guanidino-2,3-dihydro-1H-inden-5-yl)-2-(2H-tetrazol-5-yl)-6-(trifluoromethyl)benzenesulfonamide], for which the figures for the IC50 at NDM-1 (setting [4]), at IMP-1 and on VIM-1 (setting [5]) were 7.13 nM, 4.26 nM and 0.171 nM, respectively. For the same compound, the “Escherichia coli MITC95” value in assay [1] worked out at 1.086 µM. The “Klebsiella pneumoniae MITC95” value in assay [2] was 0.8906 µM. Also, the “Serratia marcescens MITC95” value in assay [3] was 0.125 µM.

Turning to `NC(=O)Cc1ccc(-c2ccc(C(F)(F)F)c(S(N)(=O)=O)c2-c2nn[nH]n2)cc1` [Example 448, 2-(3′-sulfamoyl-2′-(2H-tetrazol-5-yl)-4′-(trifluoromethyl)-[1,1′-biphenyl]-4-yl)acetamide], the IC50 (commonly the midpoint of a concentration-inhibition curve) on NDM-1 (setting [4]) was 2.1 nM; on IMP-1, 2.17 nM; on VIM-1 (setting [5]), 0.962 nM. The “Escherichia coli MITC95” value in assay [1] was 3.125 µM. The “Klebsiella pneumoniae MITC95” value in assay [2] was determined as 6.25 µM. For the same compound, the “Serratia marcescens MITC95” value in assay [3] was 0.1953 µM.

As to `NC(=O)CCc1ccc(-c2ccc(C(F)(F)F)c(S(N)(=O)=O)c2-c2nn[nH]n2)cc1` [Example 449, 3-(3′-sulfamoyl-2′-(2H-tetrazol-5-yl)-4′-(trifluoromethyl)-[1,1′-biphenyl]-4-yl)propanamide], the IC50 stood at 0.653 nM on NDM-1 (setting [4]); 0.537 nM at IMP-1; 0.815 nM against VIM-1 (VIM-1 IC50, VIM-1 enzyme). Besides, the “Escherichia coli MITC95” value in assay [1] turned out to be 0.7813 µM. Moreover, the “Klebsiella pneumoniae MITC95” value in assay [2] was determined as 6.25 µM. Also, the “Serratia marcescens MITC95” value in assay [3] was determined as 0.1953 µM.

`NS(=O)(=O)c1c(C(F)(F)F)ccc(N2CCC(c3ccc(CO)cc3)CC2)c1-c1nn[nH]n1` [Example 450, 3-(4-(4-(hydroxymethyl)phenyl)piperidin-1-yl)-2-(2H-tetrazol-5-yl)-6-(trifluoromethyl)benzenesulfonamide]: the IC50 was determined as 1.62 nM at NDM-1 (setting [4]), 1.28 nM at IMP-1 and 1.8 nM on VIM-1 (setting [5]). Further, the “Escherichia coli MITC95” value in assay [1] came to 18.75 µM. Besides, the “Klebsiella pneumoniae MITC95” value in assay [2] worked out at 75 µM. Moreover, the “Serratia marcescens MITC95” value in assay [3] was 0.03125 µM.

Take `NC1CCC(Cc2ccc(-c3ccnc4ccccc34)c(-c3nn[nH]n3)c2S(N)(=O)=O)CC1` (stereo not drawn) [Example 451, 6-(((1s,4s)-4-aminocyclohexyl)methyl)-3-(quinolin-4-yl)-2-(2H-tetrazol-5-yl)benzenesulfonamide]: the values for the IC50 on NDM-1 (setting [4]), on IMP-1 and at VIM-1 (setting [5]) were 0.977 nM, 47.1 nM and 0.476 nM, respectively. For the same compound, the “Escherichia coli MITC95” value in assay [1] came to 1.563 µM. Also, the “Klebsiella pneumoniae MITC95” value in assay [2] came out at 3.125 µM. In addition, the “Serratia marcescens MITC95” value in assay [3] was 3.125 µM.

On to `N#CCCc1ccc(-c2ccnc3ccccc23)c(-c2nn[nH]n2)c1S(N)(=O)=O` [Example 453, 6-(2-cyanoethyl)-3-(quinolin-4-yl)-2-(2H-tetrazol-5-yl)benzenesulfonamide], for which the values for the IC50 at NDM-1 (setting [4]), on IMP-1 and at VIM-1 (setting [5]) were 6.88 nM, 111 nM and 0.665 nM, respectively. In addition, the “Escherichia coli MITC95” value in assay [1] was 4.688 µM. Also, in assay [2], the “Klebsiella pneumoniae MITC95” value turned out to be 6.25 µM. In addition, in assay [3], the “Serratia marcescens MITC95” value came out at 12.5 µM.

Turning to `NS(=O)(=O)c1c(CC2CCNCC2)ccc(-c2ccc(C3CCNCC3)cc2)c1-c1nn[nH]n1` [Example 456, 4′-(piperidin-4-yl)-4-(piperidin-4-ylmethyl)-2-(2H-tetrazol-5-yl)-[1,1′-biphenyl]-3-sulfonamide], the IC50 stood at 4.58 nM at NDM-1 (setting [4]), 9.79 nM at IMP-1 and 3.44 nM at VIM-1 (setting [5]). Further, in assay [1], the “Escherichia coli MITC95” value came to 0.5859 µM. In assay [2], the “Klebsiella pneumoniae MITC95” value worked out at 1.172 µM. Further, the “Serratia marcescens MITC95” value in assay [3] was 0.5859 µM.

Turning to `NC[C@H]1CC[C@H](Cc2ccc(-c3ccc(C4CCNCC4)cc3)c(-c3nn[nH]n3)c2S(N)(=O)=O)CC1` [Example 457, 4-(((1r,4r)-4-(aminomethyl)cyclohexyl)methyl)-4′-(piperidin-4-yl)-2-(2H-tetrazol-5-yl)-[1,1′-biphenyl]-3-sulfonamide], the IC50 on NDM-1 (setting [4]) worked out at 1.1 nM; on IMP-1, 3.05 nM; at VIM-1 (setting [5]), 0.803 nM. The “Escherichia coli MITC95” value in assay [1] came out at 0.3906 µM. For the same compound, the “Klebsiella pneumoniae MITC95” value in assay [2] turned out to be 1.172 µM. In addition, the “Serratia marcescens MITC95” value in assay [3] came to 0.1953 µM.

`NS(=O)(=O)c1c(CC(F)(F)F)ccc(-c2ccc(C3CCNCC3)cc2)c1-c1nn[nH]n1` [Example 458, 4′-(piperidin-4-yl)-2-(2H-tetrazol-5-yl)-4-(2,2,2-trifluoroethyl)-[1,1′-biphenyl]-3-sulfonamide]: the values for the IC50 at NDM-1 (setting [4]), at IMP-1 and on VIM-1 (setting [5]) were 22.1 nM, 2.39 nM and 2.12 nM, respectively. In assay [1], the “Escherichia coli MITC95” value came out at 3.125 µM. In addition, in assay [2], the “Klebsiella pneumoniae MITC95” value is 3.125 µM. For the same compound, in assay [3], the “Serratia marcescens MITC95” value came out at 0.125 µM.

On to `NC1CCC(c2ccc(-c3ccc(C4CCNCC4)cc3)c(-c3nn[nH]n3)c2S(N)(=O)=O)CC1` (stereo not drawn) [Example 459, 4-(4-aminocyclohexyl)-4′-(piperidin-4-yl)-2-(2H-tetrazol-5-yl)-[1,1′-biphenyl]-3-sulfonamide], for which the IC50 was 1120 nM at NDM-1 (setting [4]), 86.6 nM on IMP-1 and 112 nM at VIM-1 (setting [5]). The “Escherichia coli MITC95” value in assay [1] was found to be 6.25 µM. In addition, the “Klebsiella pneumoniae MITC95” value in assay [2] was 3.125 µM. The “Serratia marcescens MITC95” value in assay [3] was 1.172 µM.

As to `NS(=O)(=O)c1c(CCC2CCNCC2)ccc(-c2ccc(C3CCNCC3)cc2)c1-c1nn[nH]n1` [Example 460, 4′-(piperidin-4-yl)-4-(2-(piperidin-4-yl)ethyl)-2-(2H-tetrazol-5-yl)-[1,1′-biphenyl]-3-sulfonamide], the figures for the IC50 against NDM-1, at IMP-1 and on VIM-1 (setting [5]) were 3.97 nM, 16.6 nM and 10.4 nM, respectively. Moreover, the “Escherichia coli MITC95” value in assay [1] was found to be 0.5859 µM. In assay [2], the “Klebsiella pneumoniae MITC95” value came to 1.563 µM. Also, the “Serratia marcescens MITC95” value in assay [3] came to 0.3906 µM.
